As a reminder, the IC50 is the concentration that gives 50% inhibition.

We go through 29 compounds from US20250326739A1, “CD38 MODULATORS AND USES THEREOF” (Aeovian Pharmaceuticals, Inc., priority 2022, published 2025).

Molecules are shown by their SMILES. Counter-ions that a name gives are not always drawn. Where only a bound is given, the exact number is not on record here.

One test addresses human CD38 (Homo sapiens (Human), UniProt P28907). As to the kind of experiment: NAD+ cyclase activity assay with human recombinant CD38 protein. It is filed as biochemical. Particulars: 1.9 nM human CD38, 15.8 μM e-NAD substrate, fluorescence read-out. The protocol: (§1) Example 5: NAD^+ Cydase Activity Assay with Human or Mouse Recombinant CD38 Protein
(§2) The following assay was used to determine the ability of compounds of the invention to inhibit the hydrolysis of NAD^+ by the human or mouse enzyme, CD38.
(§3) Reaction buffer: 40 mM HEPES/NaOH pH 7.5, 250 mM sucrose, 0.01% Tween
(§4) Final concentrations: 0.6 nM mouse CD38 (4947-AC, Bio-Techne GmbH) 1.9 nM human CD38 (AVI2404, Bio-Techne GmbH)
(§5) Substrate: 15.8 μM Nicotinamide 1,N6-ethenoadenine dinucleotide (E-NAD)
(§6) Read-out: Fluorescence intensity (extinction 300 nm/emission 410 nm)
(§7) Required reaction buffer, required CD38 concentration in reaction buffer and required e-NAD concentration in reaction buffer were prepared. Thereafter, 8 μL of CD38 in reaction buffer were added to High Control and compound concentration wells in 384 well plate (Corning #4514, 384 well, nonbinding surface, low volume, round bottom) and 8 μL of reaction buffer to Low Control. Compound dilutions were transferred via pintool technology that transfers 42.5 nL compound dilutions (12-point dose-response with factor three dilutions in 100% DMSO) well-to-well. Plate was subsequently shaken for 15 s at 1450 rpm and sealed for incubation for 30 min at room temperature. Thereafter, 2 μL of e-NAD in reaction buffer were added with Integra Voyager. After shaking for 15 s at 1450 rpm, plate was sealed, and assay signal was measured continuously with PHERAstar® fluorescence intensity module (extinction 300 nm/emission 410 nm).
(§8) Dose-response curves were constructed using twelve-point factor three dilutions in triplicates per plate. High control (full enzyme activity) was set to assay signal of CD38 and e-NAD in presence of vehicle (DMSO) and Low control (full enzyme inhibition) was set to assay signal of e-NAD and vehicle (DMSO) in absence of CD38. For data analysis, fluorescent signal of traces corresponding to each compound concentration and High and Low control was monitored over time. Each run, High Control (full enzyme activity) was fitted to Linear equation via GraphPad Prism to determine CD38 activity from the slope and determine the time interval of linear phase of reaction to account for minor fluctuations. Thereafter, slopes of all compound concentrations were determined via fitting to same linear equation (GraphPad Prism) over the same time interval as determined for High control. Percentage inhibition was calculated via normalization to High and Low Control via the equation: %−inhibition=100*(1−((Sample−Low control)/(High control−Low control))) Half maximal inhibitory concentration (IC50) values are yielded from the inflection point of the corresponding curve by fitting of resulting percentage inhibition values to standard equation (4 Parameter Logistic Model or Sigmoidal Dose-Response Model) via Excel Fit. Unless otherwise stated, fitting of curves was fixed to 100%-inhibition and unlocked for 0%-inhibition.

The target in the next test is mouse CD38 (Mus musculus (Mouse), UniProt P56528). As to the kind of experiment: NAD+ cyclase activity assay with mouse recombinant CD38 protein. It is filed as biochemical. The following applies: 0.6 nM mouse CD38, 15.8 μM e-NAD substrate, fluorescence read-out. The procedure: as §1, §2, §3, §4, §5, §6, §7, §8
mouse CD38, sequence (P56528 whole entry): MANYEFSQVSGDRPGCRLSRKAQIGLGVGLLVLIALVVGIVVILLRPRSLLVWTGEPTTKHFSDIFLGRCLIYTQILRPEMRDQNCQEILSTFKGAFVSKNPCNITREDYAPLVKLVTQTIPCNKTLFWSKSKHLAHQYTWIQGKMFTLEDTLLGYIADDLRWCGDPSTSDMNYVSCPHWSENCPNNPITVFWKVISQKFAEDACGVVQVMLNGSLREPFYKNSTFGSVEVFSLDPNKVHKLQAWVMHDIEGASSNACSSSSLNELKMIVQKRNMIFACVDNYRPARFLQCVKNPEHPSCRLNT

human CD38, sequence (P28907 whole entry): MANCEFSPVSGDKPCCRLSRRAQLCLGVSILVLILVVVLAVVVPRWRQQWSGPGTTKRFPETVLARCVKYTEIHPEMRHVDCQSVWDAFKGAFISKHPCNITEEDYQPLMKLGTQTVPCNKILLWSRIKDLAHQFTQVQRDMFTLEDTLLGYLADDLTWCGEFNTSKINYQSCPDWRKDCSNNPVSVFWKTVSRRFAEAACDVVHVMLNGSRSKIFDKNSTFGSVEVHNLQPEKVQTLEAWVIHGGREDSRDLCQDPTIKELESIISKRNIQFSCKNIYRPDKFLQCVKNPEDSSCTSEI

Take `Cc1cc(C(=O)NC2CCOCC2(C)C)nc(-n2ccnc2)c1` (stereo not shown) [Compound 27A, N-(3,3-Dimethyltetrahydro-2H-pyran-4-yl)-6-(1H-imidazol-1-yl)-4-methylpicolinamide]: the IC50 lay within 100 to 1000 nM at human CD38 and 10 to 100 nM at mouse CD38.

Regarding `Cc1cc(C(=O)NC2CC3CCC(C2)O3)nc(-n2ccnc2)c1` (stereo not shown) [Compound 28A, N-(8-Oxabicyclo[3.2.1]octan-3-yl)-6-(1H-imidazol-1-yl)-4-methylpicolinamide], the IC50 at human CD38 was 100 to 1000 nM; at mouse CD38 it was 1 to 10 nM.

Consider `Cc1cc(C(=O)NC2CCC(C)(C)OC2)nc(-n2ccnc2)c1` (stereo not shown) [Compound 29A, N-(6,6-Dimethyltetrahydro-2H-pyran-3-yl)-6-(1H-imidazol-1-yl)-4-methylpicolinamide], for which the IC50 was in the range of 30 to 100 nM at human CD38 and 1 to 10 nM at mouse CD38.

Take `Cc1cc(C(=O)NC2CCOC(C)C2)nc(-n2ccnc2)c1` (stereo not shown) [Compound 30A, 6-(1H-Imidazol-1-yl)-4-methyl-N-(2-methyltetrahydro-2H-pyran-4-yl)picolinamide]: the values for the IC50 on human CD38 and at mouse CD38 were 30 to 100 nM and 1 to 10 nM, respectively.

For the compound `Cc1cc(C(=O)NC2C3COCC32)nc(-n2ccnc2)c1` (stereo not shown) [Compound 31A, N-(3-Oxabicyclo[3.1.0]hexan-6-yl)-6-(1H-imidazol-1-yl)-4-methylpicolinamide], the results for the IC50 at human CD38 and on mouse CD38 were 30 to 100 nM and 1 to 10 nM, respectively.

As to `Cc1cc(C(=O)NC2CCOCC2)nc(-n2ccnc2)c1` [Compound 32A, 6-(1H-Imidazol-1-yl)-4-methyl-N-(tetrahydro-2H-pyran-4-yl)picolinamide], the IC50 at human CD38 was 30 to 100 nM; at mouse CD38, 1 to 10 nM.

Consider `Cc1cc(C(=O)NC2CCCCCC2)nc(-n2ccnc2)c1` [Compound 34A, N-Cycloheptyl-6-(1H-imidazol-1-yl)-4-methylpicolinamide], for which the IC50 on human CD38 was less than 30 nM; on mouse CD38 it was 1 to 10 nM.

Take `Cc1cc(C(=O)NC2CCC(F)(F)C2)nc(-n2ccnc2)c1` (stereo not shown) [Compound 35A, N-(3,3-Difluorocyclopentyl)-6-(1H-imidazol-1-yl)-4-methylpicolinamide]: the IC50 on human CD38 is less than 30 nM; on mouse CD38, 1 to 10 nM.

In the case of `Cc1cc(C(=O)NC2CCCS(=O)(=O)C2)nc(-n2ccnc2)c1` (stereo not shown) [Compound 36A, N-(1,1-Dioxidotetrahydro-2H-thiopyran-3-yl)-6-(1H-imidazol-1-yl)-4-methylpicolinamide], the IC50 lay in the range of 100 to 1000 nM on human CD38 and 1 to 10 nM on mouse CD38.

For `Cc1cc(C(=O)N[C@H]2CCOC2)nc(-n2ccnc2)c1` [Compound 38A, (S)-6-(1H-Imidazol-1-yl)-4-methyl-N-(tetrahydrofuran-3-yl)picolinamide], the concentration for half-maximal inhibition (IC50) on human CD38 is 100 to 1000 nM; at mouse CD38, 1 to 10 nM.

Regarding `Cc1cc(C(=O)N[C@H]2CCNC2)nc(-n2ccnc2)c1` [Compound 41A, (S)-6-(1H-Imidazol-1-yl)-4-methyl-N-(pyrrolidin-3-yl)picolinamide hydrochloride], the results for the IC50 on human CD38 and at mouse CD38 were more than 1000 nM and more than 100 nM, respectively.

With `Cc1cc(C(=O)N[C@@H]2CCOC2)nc(-n2ccnc2)c1` [Compound 42A, (R)-6-(1H-Imidazol-1-yl)-4-methyl-N-(tetrahydrofuran-3-yl)picolinamide], the IC50 lay in the range of 30 to 100 nM on human CD38 and 1 to 10 nM at mouse CD38.

Regarding `Cc1cc(C(=O)N[C@@H]2CCN(C(=O)OC(C)(C)C)C2)nc(-n2ccnc2)c1` [Compound 43A, tert-Butyl (R)-3-(6-(1H-imidazol-1-yl)-4-methylpicolinamido)pyrrolidine-1-carboxylate], the IC50 was less than 30 nM on human CD38 and 1 to 10 nM at mouse CD38.

Consider `Cc1cc(C(=O)N[C@@H]2CCCOC2)nc(-n2ccnc2)c1` [Compound 44A, (R)-6-(1H-Imidazol-1-yl)-4-methyl-N-(tetrahydro-2H-pyran-3-yl)picolinamide], for which the results for the IC50 at human CD38 and at mouse CD38 were less than 30 nM and less than 1 nM, respectively.

As to `Cc1cc(C(=O)N[C@H]2CCCOC2)nc(-n2ccnc2)c1` [Compound 45A, (S)-6-(1H-Imidazol-1-yl)-4-methyl-N-(tetrahydro-2H-pyran-3-yl)picolinamide], the IC50 at human CD38 was 100 to 1000 nM; at mouse CD38, 1 to 10 nM.

Regarding `Cc1cc(C(=O)N[C@H]2CCN(S(C)(=O)=O)C2)nc(-n2ccnc2)c1` [Compound 46A, (S)-6-(1H-imidazol-1-yl)-4-methyl-N-(1-(methylsulfonyl)pyrrolidin-3-yl)picolinamide], the IC50 on human CD38 was 100 to 1000 nM; at mouse CD38 it was 1 to 10 nM.

Regarding `Cc1cc(C(=O)N[C@H]2CCCN(C(=O)OC(C)(C)C)C2)nc(-n2ccnc2)c1` [Compound 47A, tert-Butyl (S)-3-(6-(1H-imidazol-1-yl)-4-methylpicolinamido)piperidine-1-carboxylate], the IC50 is 100 to 1000 nM at human CD38 and 1 to 10 nM at mouse CD38.

In the case of `Cc1cc(C(=O)N[C@H]2CCCNC2)nc(-n2ccnc2)c1` [Compound 48A, (S)-6-(1H-Imidazol-1-yl)-4-methyl-N-(piperidin-3-yl)picolinamide dihydrochloride], the values for the IC50 at human CD38 and at mouse CD38 were more than 1000 nM and 10 to 100 nM, respectively.

With `Cc1cc(C(=O)N[C@@H]2CCCN(C(=O)OC(C)(C)C)C2)nc(-n2ccnc2)c1` [Compound 49A, tert-Butyl (R)-3-(6-(1H-imidazol-1-yl)-4-methylpicolinamido)piperidine-1-carboxylate], the half-inhibitory concentration (IC50) on human CD38 is 30 to 100 nM; at mouse CD38, 1 to 10 nM.

For `Cc1cc(C(=O)N[C@H]2CCCN(S(C)(=O)=O)C2)nc(-n2ccnc2)c1` [Compound 50A, (S)-6-(1H-Imidazol-1-yl)-4-methyl-N-(1-(methylsulfonyl)piperidin-3-yl)picolinamide], the IC50 at human CD38 lay within 100 to 1000 nM; at mouse CD38, 1 to 10 nM.

Regarding `Cc1cc(C(=O)N[C@@H]2CCCNC2)nc(-n2ccnc2)c1` [Compound 51A, (R)-6-(1H-Imidazol-1-yl)-4-methyl-N-(piperidin-3-yl)picolinamide dihydrochloride], the figures for the IC50 on human CD38 and at mouse CD38 were more than 1000 nM and more than 100 nM, respectively.

With `Cc1cc(C(=O)N[C@@H]2CCNC2)nc(-n2ccnc2)c1` [Compound 52A, (R)-6-(1H-Imidazol-1-yl)-4-methyl-N-(pyrrolidin-3-yl)picolinamide dihydrochloride], the results for the IC50 on human CD38 and at mouse CD38 were more than 1000 nM and more than 100 nM, respectively.

`Cc1cc(C(=O)N[C@@H]2CCN(S(C)(=O)=O)C2)nc(-n2ccnc2)c1` [Compound 53A, (R)-6-(1H-Imidazol-1-yl)-4-methyl-N-(1-(methylsulfonyl)pyrrolidin-3-yl)picolinamide]: the IC50 is 100 to 1000 nM at human CD38 and 1 to 10 nM on mouse CD38.

Regarding `Cc1cc(C(=O)N[C@@H]2CCCN(S(C)(=O)=O)C2)nc(-n2ccnc2)c1` [Compound 54A, (R)-6-(1H-Imidazol-1-yl)-4-methyl-N-(1-(methylsulfonyl)piperidin-3-yl)picolinamide], the IC50 fell in the range of 30 to 100 nM at human CD38 and 1 to 10 nM at mouse CD38.

As for `Cc1cc(C(=O)N[C@H]2CCS(=O)(=O)C2)nc(-n2ccnc2)c1` [Compound 55A, (S)—N-(1,1-Dioxidotetrahydrothiophen-3-yl)-6-(1H-imidazol-1-yl)-4-methylpicolinamide], the results for the IC50 at human CD38 and on mouse CD38 were 100 to 1000 nM and 1 to 10 nM, respectively.

For `Cc1cc(C(=O)N[C@@H]2CCCN(C)C2=O)nc(-n2ccnc2)c1` [Compound 56A, (R)-6-(1H-Imidazol-1-yl)-4-methyl-N-(1-methyl-2-oxopiperidin-3-yl)picolinamide], the figures for the IC50 at human CD38 and at mouse CD38 were more than 1000 nM and more than 100 nM, respectively.

On to `Cc1cc(C(=O)N[C@@H]2CCCS(=O)(=O)C2)nc(-n2ccnc2)c1` [Compound 57A, (R)—N-(1,1-Dioxidotetrahydro-2H-thiopyran-3-yl)-6-(1H-imidazol-1-yl)-4-methylpicolinamide], for which the IC50 at human CD38 was 30 to 100 nM; at mouse CD38 it was 1 to 10 nM.

As for `Cc1cc(C(=O)N[C@@H]2CCCNC2=O)nc(-n2ccnc2)c1` [Compound 58A, (R)-6-(1H-Imidazol-1-yl)-4-methyl-N-(2-oxopiperidin-3-yl)picolinamide], the values for the IC50 at human CD38 and at mouse CD38 were more than 1000 nM and 10 to 100 nM, respectively.

With `Cc1cc(C(=O)N[C@@H]2CCCN(C)C2)nc(-n2ccnc2)c1` [Compound 59A, (R)-6-(1H-Imidazol-1-yl)-4-methyl-N-(1-methylpiperidin-3-yl)picolinamide], the figures for the IC50 on human CD38 and on mouse CD38 were more than 1000 nM and 10 to 100 nM, respectively.
